From patent US20100129428A1, “SUPRA MOLECULAR CONSTRUCT FOR DELIVERY OF INTERFERON TO A MAMMAL” (SDG, Inc., priority 2005, published 2010)

Columns and labels:
[1] = system: double stranded RNA dependent protein kinase (PKR) gene; assay: Induction of PKR mRNA in liver and spleen of mice, real time quantitative PCR; assay type: in vivo, mouse
Procedure: The efficacy of HDV-interferon alpha was evaluated in a mouse model having a genetic marker response to the hepatic effect of interferon. C57B16 mice were obtained from Jackson Laboratory and a breeding colony was established at Cleveland MetroHealth Center, Cleveland, Ohio. Mice were obtained from the breeding colony. Two groups of mice, a test group and a control group, were treated. The test group received Interferon+HDV, while the control group received Interferon alone. HDV-Interferon comprised 100 mcg HDV to 10 mcg Interferon alpha. HDV was supplied by Hepasome Pharmaceuticals and Roeferon was the source of the interferon alpha. The HDV and interferon alpha were allowed to equilibrate for 12 hours prior to injection into the mice. Mice from both groups were dosed with 100,000 U/kg body wt. To test the timing of response to IFN, Roferon was subcutaneously injected into the mice. The mice were sacrificed at 6 hours after dosing. The spleen and liver of the sacrificed […] were obtained for analysis. […] The assay used real time quantitative PCR (polymerase chain reaction) to assay the level of PKR messenger ribonucleic acid (mRNA). […] The produced cDNAs were subjected to semi-quantitative PCR, the 6 hour time point was selected for the HDV experiments. […] Real time quantitative PCR was performed on the produced cDNAs using cybr green technology. […]

hepatitis C virus = conditions: chronic hepatitis C; treatment with interferon alone; cited from earlier work

interferon alpha
relative expression level in the spleen compared to the relative expression level in the liver ([1]; PKR mRNA, C57B16 mice, 100,000 U/kg body wt, subcutaneous, 6 hours after dosing, FIG. 12a): approximately twice | increase in PKR activation relative to a baseline ([1]; hepatic PKR activation, mouse model, FIG. 13): ~5 fold | sustained response (hepatitis C virus): less than 15 % of subjects
